Experimental data: PMC8991007, “Benzylic Dehydroxylation of Echinocandin Antifungal Drugs Restores Efficacy against Resistance Conferred by Mutated Glucan Synthase” (Journal of the American Chemical Society, 2022)
*1 amine or outer side, *2 acyl side, *3 side chain or, on linkers, in order; H or OH if unused. Where a SMILES comes first, the peptide text is derived from it. Bridges are numbered along the chain shown (N, C = ends). [ ]: non-standard residue; d: D form. The star is where a group is joined. Orn(4R-OH,5R-OCH2CH2NMe3+) = C[N+](C)(C)CCO[C@@H](N[*:3])[C@H](O)C[C@H](N[*:1])C(=O)[*:2]; pTerphenylCO(4''-OnC5H11) = CCCCCOc1ccc(-c2ccc(-c3ccc(C(=O)*)cc3)cc2)cc1; hTyr(3S-OH,4S-OH) = N[C@H](C(=O)O)[C@H](O)[C@@H](O)c1ccc(O)cc1; Pro(3S-OH,4S-Me) = C[C@H]1CN[C@H](C(=O)O)[C@H]1O; hTyr(3R-OH) = N[C@H](C(=O)O)[C@H](O)Cc1ccc(O)cc1; Hyp = O=C(O)[C@@H]1C[C@@H](O)CN1

Tests used:
UACC-62 = assay: cells; assay type: cell-based; conditions: Homo sapiens; UACC-62 expressing GFP, 24 h, mean ± SD; read-out: IC50 (cell viability)
Experimental: (§1) In this analysis, we used HCT-116, a human colorectal carcinoma cell line; UACC-62, a human melanoma cell line; Hs 578T, a human mammary gland carcinoma cell line, and SF-295, a human glioblastoma cell line. […] The highest concentration of the echinocandins used for the cell viability tests was determined based on the reported maximal plasma concentrations (Cmax) of ANF and RZF measured in humans. A Cmax of approximately 7 μM was measured during a pharmacokinetic study of ANF in patients with candidemia or invasive candidiasis who were treated with a 200 mg loading dose on day 1, followed by a daily 100 mg maintenance dose.[64]
(§2) Human cell lines HCT-116, UACC-62, Hs 578T, and SF-295 were obtained from the Life Sciences Core Facilities of the Nancy & Stephen Grand Israel National Center for Personalized Medicine. Cell lines were grown in an RPMI medium (Gibco, cat. no. 21875-034) supplemented with 10% fetal calf serum (Biological Industries, cat. no. 04-007-1A), Pen/Strep (Biological Industries, cat. no. 03-031-1B), and glutamine (Biological Industries, cat. no. 03-020-1B). GFP was introduced into cells using TALENS according to a previously reported protocol.[73] GFP cells were selected by FACS and propagated.
(§3) Assay-ready plates were designed using in-house software (CHEMPION, INCPM software development team) and prepared in 384-well Greiner plates (cat. no. 781091) using an Echo 555 Acoustic Liquid Handler (Labcyte). The final DMSO concentration in all samples was 0.4%. Prior to the experiment, cells were trypsinized and counted using a Countess cytometer. Cells were then diluted to 40,000 cells/mL in a fresh medium. Cells (50 μL/well; 2000 cells/well) were then dispensed with a Thermo Combi dispenser into plates containing predispensed compounds. After 30 min at room temperature to ensure uniform adherence of cells, the plates were moved to an automated incubator (Liconic STX44) and incubated at 37 °C. An automated confocal microscope with a 4× S Fluor lens (Molecular Devices ImageExpress) was used to acquire images of GFP-expressing cells after 24 h of incubation. Images were then analyzed using MetaExpress with a custom protocol (Custom Module Editor), and data were annotated and normalized using Genedata Screener software. Final normalized data were then loaded into CDD Vault software for comparative data visualization.

HCT-116 = assay: cells; assay type: cell-based; conditions: Homo sapiens; HCT-116 expressing GFP, 24 h, mean ± SD; read-out: IC50 (cell viability)
Experimental: as §1, §2, §3

SF-295 = assay: cells; assay type: cell-based; conditions: Homo sapiens; SF-295 expressing GFP, 24 h, mean ± SD; read-out: IC50 (cell viability)
Experimental: as §1, §2, §3

Hs 578T = assay: Phenotypic viability assay of GFP reporter cell line; assay type: cell-based; conditions: Homo sapiens; Hs 578T expressing GFP, 24 h, mean ± SD
Experimental: as §1, §2, §3

C. albicans = assay: Minimum inhibitory concentration broth double-dilution assay; assay type: cell-based, Candida albicans; conditions: for MIC: 24 h, 30 °C
Experimental: (§4) The antifungal activities of compounds 1 and 2 were evaluated against a panel of 50 strains of C. albicans and C. glabrata (Table S4), including echinocandin-resistant strains that were constructed by introducing mutations within and near the defined hotspots in the FKS1 and/or FKS2 genes.[27] To evaluate antifungal activity, we determined MIC values. The MIC was defined as the lowest drug concentration that led to turbidity (measured at 600 nm) of less than or equal to 35% of that of the untreated culture. As controls, we tested CSF, MCF, ANF, and RZF.
(§5) All of the tested compounds were dissolved in anhydrous DMSO to a concentration of 5 mg/mL. Candida strains were streaked from a glycerol stock onto YPAD agar plates and grown for 24 h at 30 °C. Colonies were suspended in 1 mL of PBS and diluted to an O.D. of 0.01 at 600 nm with YPAD broth and added into flat-bottom 96-well microplates (Corning) containing a gradient of twofold dilutions per tested compound with concentrations ranging from 64 to 0.0009 μg/mL. Control wells with no drug and blank wells without yeast cells containing YPAD only were also prepared. […] Each concentration was tested in triplicate, and results were confirmed by at least two independent sets of experiments.

C. glabrata = assay: as above; assay type: cell-based, Candida glabrata; conditions: 24 h, 30 °C
Experimental: as §4, §5

[1] = #2 C. albicans DPL1015 (DP-A15)
[2] = #3 C. albicans DPL1016 (DP-A15-10)

In the case of `CCCCCOc1ccc(-c2ccc(-c3ccc(C(=O)N[C@H]4C[C@@H](O)[C@@H](OCC[N+](C)(C)C)NC(=O)[C@@H]5[C@@H](O)[C@@H](C)CN5C(=O)[C@H]([C@@H](C)O)NC(=O)[C@H]([C@H](O)Cc5ccc(O)cc5)NC(=O)[C@@H]5C[C@@H](O)CN5C(=O)[C@H]([C@@H](C)O)NC4=O)cc3)cc2)cc1` [Compound 2, dehydroxy-RZF] ({pTerphenylCO(4''-OnC5H11)}-[Orn(4R-OH,5R-OCH2CH2NMe3+)]T[Hyp][hTyr(3R-OH)]T[Pro(3S-OH,4S-Me)]; lactam 1-C), the IC50 (UACC-62) is reported as 29.2 ± 5.2 µM, the IC50 (HCT-116) is reported as 34.1 ± 11.5 µM and the IC50 (SF-295) is reported as 32.4 ± 6.7 µM. It also gave an IC50 (Hs 578T) greater than 40 µM, an MIC (C. albicans; #1 C. albicans Sc5314) of 0.015 µg/mL and an MIC (C. albicans; [1]) of 0.062 µg/mL. The MIC (C. albicans; [2]) was 2 µg/mL, the MIC (C. albicans; #4 C. albicans T-2068 (DP-C42)) was 0.5 µg/mL and the MIC (C. albicans; #5 C. albicans T-2069 (DP-85)) was 0.5 µg/mL. The MIC (C. albicans; #6 C. albicans (DP-89)) was 1 µg/mL, the MIC (C. albicans; #7 C. albicans T-2076 (DP-194)) was 1 µg/mL and the MIC (C. albicans; #8 C. albicans T-2077 (DP-205)) was 0.25 µg/mL. The “MIC differences between RZF and dehydroxy derivative 2 (ratio MIC (RZF)/MIC (2))” value (C. albicans; C. albicans strains 5 and 6, Fks1 serine 645 to phenylalanine or tyrosine) was “at least 8 fold”, the MIC (C. glabrata; #9 C. glabrata EF1620) was 0.015 µg/mL and the MIC (C. glabrata; #10 C. glabrata TGL00277) was 16 µg/mL. For the same molecule, the MIC (C. glabrata; #11 C. glabrata TGL00275) was 8 µg/mL, the MIC (C. glabrata; #12 C. glabrata CST78) was 0.004 µg/mL and the MIC (C. glabrata; #13 C. glabrata TGL00265) was 2 µg/mL. It also gave an MIC (C. glabrata; #14 C. glabrata TGL00264) of 32 µg/mL, an MIC (C. glabrata; #15 C. glabrata TGL00263) of 2 µg/mL and an MIC (C. glabrata; #16 C. glabrata TGL00065) of 8 µg/mL. It also gave an MIC (C. glabrata; #17 C. glabrata CST34) of 0.004 µg/mL, an MIC (C. glabrata; #18 C. glabrata TGL00258) of 8 µg/mL and an MIC (C. glabrata; #19 C. glabrata TGL00256) of 0.25 µg/mL. For the same molecule, the MIC (C. glabrata; #20 C. glabrata TGL00107) was 16 µg/mL, the MIC (C. glabrata; #21 C. glabrata TGL00056) was greater than 64 µg/mL and the MIC (C. glabrata; #22 C. glabrata M12) was 0.002 µg/mL. The MIC (C. glabrata; #23 C. glabrata TGL00270) was 4 µg/mL, the MIC (C. glabrata; #24 C. glabrata TGL00269) was 0.063 µg/mL and the MIC (C. glabrata; #25 C. glabrata TGL00268) was greater than 64 µg/mL. It also gave an MIC (C. glabrata; #26 C. glabrata TGL00268) greater than 64 µg/mL, an MIC (C. glabrata; #27 C. glabrata EB0911) of 0.004 µg/mL and an MIC (C. glabrata; #28 C. glabrata TGL00261) of 1 µg/mL. For the same molecule, the MIC (C. glabrata; #29 C. glabrata TGL00109) was 64 µg/mL, the MIC (C. glabrata; #30 C. glabrata TGL00259) was 8 µg/mL and the MIC (C. glabrata; #31 C. glabrata EF1237) was 0.002 µg/mL. The MIC (C. glabrata; #36 C. glabrata F15) was 0.004 µg/mL, the MIC (C. glabrata; #38 C. glabrata CBS138 (ATCC 2001)) was 0.008 µg/mL and the MIC (C. glabrata; #41 C. glabrata P35_2) was 0.004 µg/mL. The MIC (C. glabrata; #43 C. glabrata SLL2glab) was 0.008 µg/mL and the MIC (C. glabrata; #46 C. glabrata BG2) was 0.008 µg/mL.
Molecule `CCCCCOc1ccc(-c2ccc(-c3ccc(C(=O)N[C@H]4C[C@@H](O)[C@@H](OCC[N+](C)(C)C)NC(=O)[C@@H]5[C@@H](O)[C@@H](C)CN5C(=O)[C@H]([C@@H](C)O)NC(=O)[C@H]([C@H](O)[C@@H](O)c5ccc(O)cc5)NC(=O)[C@@H]5C[C@@H](O)CN5C(=O)[C@H]([C@@H](C)O)NC4=O)cc3)cc2)cc1` [RZF, rezafungin] ({pTerphenylCO(4''-OnC5H11)}-[Orn(4R-OH,5R-OCH2CH2NMe3+)]T[Hyp][hTyr(3S-OH,4S-OH)]T[Pro(3S-OH,4S-Me)]; lactam 1-C) has an IC50 (UACC-62) greater than 40 µM, an IC50 (HCT-116) greater than 40 µM and an IC50 (SF-295) greater than 40 µM. For the same molecule, the IC50 (Hs 578T) was greater than 40 µM, the MIC (C. albicans; #1 C. albicans Sc5314) was 0.015 µg/mL and the MIC (C. albicans; [1]) was 0.25 µg/mL. For the same molecule, the MIC (C. albicans; [2]) was 4 µg/mL, the MIC (C. albicans; #4 C. albicans T-2068 (DP-C42)) was 2 µg/mL and the MIC (C. albicans; #5 C. albicans T-2069 (DP-85)) was 8 µg/mL. For the same molecule, the MIC (C. albicans; #6 C. albicans (DP-89)) was 8 µg/mL, the MIC (C. albicans; #7 C. albicans T-2076 (DP-194)) was 1 µg/mL and the MIC (C. albicans; #8 C. albicans T-2077 (DP-205)) was 1 µg/mL. The MIC (C. glabrata; #9 C. glabrata EF1620) was 0.015 µg/mL, the MIC (C. glabrata; #10 C. glabrata TGL00277) was 64 µg/mL and the MIC (C. glabrata; #11 C. glabrata TGL00275) was 16 µg/mL. The MIC (C. glabrata; #12 C. glabrata CST78) was 0.008 µg/mL, the MIC (C. glabrata; #13 C. glabrata TGL00265) was 16 µg/mL and the MIC (C. glabrata; #14 C. glabrata TGL00264) was 32 µg/mL. The MIC (C. glabrata; #15 C. glabrata TGL00263) was 32 µg/mL, the MIC (C. glabrata; #16 C. glabrata TGL00065) was greater than 64 µg/mL and the MIC (C. glabrata; #17 C. glabrata CST34) was 0.008 µg/mL. It also gave an MIC (C. glabrata; #18 C. glabrata TGL00258) greater than 64 µg/mL, an MIC (C. glabrata; #19 C. glabrata TGL00256) of 4 µg/mL and an MIC (C. glabrata; #20 C. glabrata TGL00107) greater than 64 µg/mL. The MIC (C. glabrata; #21 C. glabrata TGL00056) was greater than 64 µg/mL, the MIC (C. glabrata; #22 C. glabrata M12) was 0.008 µg/mL and the MIC (C. glabrata; #23 C. glabrata TGL00270) was greater than 64 µg/mL. It also gave an MIC (C. glabrata; #24 C. glabrata TGL00269) of 1 µg/mL, an MIC (C. glabrata; #25 C. glabrata TGL00268) greater than 64 µg/mL and an MIC (C. glabrata; #26 C. glabrata TGL00268) greater than 64 µg/mL. The MIC (C. glabrata; #27 C. glabrata EB0911) was 0.015 µg/mL, the MIC (C. glabrata; #28 C. glabrata TGL00261) was 16 µg/mL and the MIC (C. glabrata; #29 C. glabrata TGL00109) was 64 µg/mL. The MIC (C. glabrata; #30 C. glabrata TGL00259) was greater than 64 µg/mL.
